{
  "source": "patent US20260256792A1",
  "about": "“TREATMENT OF CHRONIC SPONTANEOUS URTICARIA BY ADMINISTERING (R)-2-[3-[4-AMINO-3-(2-FLUORO-4-PHENOXY-PHENYL)PYRAZOLO[3,4-D]PYRIMIDIN-1-YL]PIPERIDINE-1-CARBONYL]-4-METHYL-4-[4-(OXETAN-3-YL)PIPERAZIN-1-YL]PENT-2-ENENITRILE” (priority 2023, published 2026)",
  "test_system": "moderate-to-severe chronic spontaneous urticaria (CSU)",
  "assay": "Phase 2 CSU study: urticaria activity score over 7 days (UAS7)",
  "format": "in vivo, human",
  "conditions": "ITT, 400 mg QPM",
  "excerpt": "The study comprises a 12 week, randomized, double-blind, placebo-controlled, multi-center, dose-ranging efficacy and safety phase, followed by a 40 week open label extension (OLE) phase (see FIG. 1). The study consists of three phases and an optional OLE phase. […] Clinically, CSU is characterized by the spontaneous and recurrent appearance of pruritic hives. The proposed primary endpoints were the UAS7 at Week 12 in EU and EU reference countries and the ISS7 in the US. Regardless of where a participant was from, all assessments were the same. The UAS7 score is a composite score containing both the HSS7 and the ISS7. This allowed a global assessment of the two key components of urticaria: hives and itch. […] The UAS is a validated PRO measure. […] The daily UAS scores range from 0 to 6 point/day. […] Patients were to complete the UAS using the e-diary. […] The following secondary endpoints were to be analyzed using the same approach as for the primary endpoint: • Change from baseline in UAS7 at Week 4 • Change from baseline in UAS7 at Week 12 (for US and US reference countries) • Change from baseline in ISS7 at Week 12 (except US and US reference countries) • Change from baseline in HSS7 at Week 12 The following responder secondary endpoints were to be analyzed using the Cochran-Mantel-Haenszel test adjusted by region: • Proportion of participants with UAS7<6 at Week 12 • Proportion of participants with UAS7=0 at Week 12 Participants who received selected prohibited medications and/or rescue medications were to be considered as non-responders for time points after the medication usage. For other participants, all available data including those collected during the off-treatment period were to be used to determine the responder/non-responder status. Missing data were to be considered as non-responders.",
  "data": [
    {"smiles": "CC(C)(C=C(C#N)C(=O)N1CCC[C@@H](n2nc(-c3ccc(Oc4ccccc4)cc3F)c3c(N)ncnc32)C1)N1CCN(C2COC2)CC1", "note": "[rilzabrutinib, (R)-2-[3-[4-amino-3-(2-fluoro-4-phenoxy-phenyl)pyrazolo[3,4-d]pyrimidin-1-yl]piperidine-1-carbonyl]-4-methyl-4-[4-(oxetan-3-yl)piperazin-1-yl]pent-2-enenitrile]", "values": [
      {"measurement": "Non-responder n (%), UAS7 = 0", "setting": "Week 6", "value": "37 (97.4) n (%)"},
      {"measurement": "Non-responder n (%), UAS7 ≤6", "setting": "Week 6", "value": "35 (92.1) n (%)"},
      {"measurement": "OR for rilzabrutinib vs. placebo, UAS7 = 0", "setting": "Week 6", "value": 1.000},
      {"measurement": "OR for rilzabrutinib vs. placebo, UAS7 ≤6", "setting": "Week 6", "value": 0.540},
      {"measurement": "RRD (%) for rilzabrutinib vs. placebo, UAS7 = 0", "setting": "Week 6", "value": 0.0, "unit": "%"},
      {"measurement": "RRD (%) for rilzabrutinib vs. placebo, UAS7 ≤6", "setting": "Week 6", "value": "−6.3", "unit": "%"},
      {"measurement": "Responder n (%), UAS7 = 0", "setting": "Week 6", "value": "1 (2.6) n (%)"},
      {"measurement": "Responder n (%), UAS7 ≤6", "setting": "Week 6", "value": "3 (7.9) n (%)"},
      {"measurement": "Imputed non-responder n (%), UAS7 = 0", "setting": "Week 7", "value": "6 (15.8) n (%)"},
      {"measurement": "Imputed non-responder n (%), UAS7 ≤6", "setting": "Week 7", "value": "6 (15.8) n (%)"},
      {"measurement": "Non-responder n (%), UAS7 = 0", "setting": "Week 7", "value": "37 (97.4) n (%)"},
      {"measurement": "Non-responder n (%), UAS7 ≤6", "setting": "Week 7", "value": "37 (97.4) n (%)"},
      {"measurement": "OR for rilzabrutinib vs. placebo, UAS7 = 0", "setting": "Week 7", "value": 1.167},
      {"measurement": "OR for rilzabrutinib vs. placebo, UAS7 ≤6", "setting": "Week 7", "value": 0.278},
      {"measurement": "RRD (%) for rilzabrutinib vs. placebo, UAS7 = 0", "setting": "Week 7", "value": 0.4, "unit": "%"},
      {"measurement": "RRD (%) for rilzabrutinib vs. placebo, UAS7 ≤6", "setting": "Week 7", "value": "−7.3", "unit": "%"},
      {"measurement": "Responder n (%), UAS7 = 0", "setting": "Week 7", "value": "1 (2.6) n (%)"},
      {"measurement": "Responder n (%), UAS7 ≤6", "setting": "Week 7", "value": "1 (2.6) n (%)"},
      {"measurement": "Imputed non-responder n (%), UAS7 = 0", "setting": "Week 8", "value": "7 (18.4) n (%)"},
      {"measurement": "Imputed non-responder n (%), UAS7 ≤6", "setting": "Week 8", "value": "7 (18.4) n (%)"},
      {"measurement": "Non-responder n (%), UAS7 = 0", "setting": "Week 8", "value": "37 (97.4) n (%)"},
      {"measurement": "Non-responder n (%), UAS7 ≤6", "setting": "Week 8", "value": "35 (92.1) n (%)"},
      {"measurement": "OR for rilzabrutinib vs. placebo, UAS7 = 0", "setting": "Week 8", "value": 0.527},
      {"measurement": "OR for rilzabrutinib vs. placebo, UAS7 ≤6", "setting": "Week 8", "value": 0.502},
      {"measurement": "RRD (%) for rilzabrutinib vs. placebo, UAS7 = 0", "setting": "Week 8", "value": "−2.2", "unit": "%"},
      {"measurement": "RRD (%) for rilzabrutinib vs. placebo, UAS7 ≤6", "setting": "Week 8", "value": "−7.0", "unit": "%"},
      {"measurement": "Responder n (%), UAS7 = 0", "setting": "Week 8", "value": "1 (2.6) n (%)"},
      {"measurement": "Responder n (%), UAS7 ≤6", "setting": "Week 8", "value": "3 (7.9) n (%)"},
      {"measurement": "Imputed non-responder n (%), UAS7 = 0", "setting": "Week 9", "value": "6 (15.8) n (%)"},
      {"measurement": "Imputed non-responder n (%), UAS7 ≤6", "setting": "Week 9", "value": "6 (15.8) n (%)"},
      {"measurement": "Non-responder n (%), UAS7 = 0", "setting": "Week 9", "value": "37 (97.4) n (%)"},
      {"measurement": "Non-responder n (%), UAS7 ≤6", "setting": "Week 9", "value": "35 (92.1) n (%)"},
      {"measurement": "OR for rilzabrutinib vs. placebo, UAS7 = 0", "setting": "Week 9", "value": 0.330},
      {"measurement": "OR for rilzabrutinib vs. placebo, UAS7 ≤6", "setting": "Week 9", "value": 0.773},
      {"measurement": "RRD (%) for rilzabrutinib vs. placebo, UAS7 = 0", "setting": "Week 9", "value": "−4.9", "unit": "%"},
      {"measurement": "RRD (%) for rilzabrutinib vs. placebo, UAS7 ≤6", "setting": "Week 9", "value": "−2.2", "unit": "%"},
      {"measurement": "Responder n (%), UAS7 = 0", "setting": "Week 9", "value": "1 (2.6) n (%)"},
      {"measurement": "Responder n (%), UAS7 ≤6", "setting": "Week 9", "value": "3 (7.9) n (%)"},
      {"measurement": "Imputed non-responder n (%), UAS7 = 0", "setting": "Week 10", "value": "6 (15.8) n (%)"},
      {"measurement": "Imputed non-responder n (%), UAS7 ≤6", "setting": "Week 10", "value": "6 (15.8) n (%)"},
      {"measurement": "Non-responder n (%), UAS7 = 0", "setting": "Week 10", "value": "37 (97.4) n (%)"},
      {"measurement": "Non-responder n (%), UAS7 ≤6", "setting": "Week 10", "value": "36 (94.7) n (%)"},
      {"measurement": "OR for rilzabrutinib vs. placebo, UAS7 = 0", "setting": "Week 10", "value": 0.235},
      {"measurement": "OR for rilzabrutinib vs. placebo, UAS7 ≤6", "setting": "Week 10", "value": 0.279},
      {"measurement": "RRD (%) for rilzabrutinib vs. placebo, UAS7 = 0", "setting": "Week 10", "value": "−7.9", "unit": "%"},
      {"measurement": "RRD (%) for rilzabrutinib vs. placebo, UAS7 ≤6", "setting": "Week 10", "value": "−11.9", "unit": "%"},
      {"measurement": "Responder n (%), UAS7 = 0", "setting": "Week 10", "value": "1 (2.6) n (%)"},
      {"measurement": "Responder n (%), UAS7 ≤6", "setting": "Week 10", "value": "2 (5.3) n (%)"},
      {"measurement": "Imputed non-responder n (%), UAS7 = 0", "setting": "Week 11", "value": "7 (18.4) n (%)"},
      {"measurement": "Imputed non-responder n (%), UAS7 ≤6", "setting": "Week 11", "value": "7 (18.4) n (%)"},
      {"measurement": "Non-responder n (%), UAS7 = 0", "setting": "Week 11", "value": "36 (94.7) n (%)"},
      {"measurement": "Non-responder n (%), UAS7 ≤6", "setting": "Week 11", "value": "35 (92.1) n (%)"},
      {"measurement": "OR for rilzabrutinib vs. placebo, UAS7 = 0", "setting": "Week 11", "value": 1.065},
      {"measurement": "OR for rilzabrutinib vs. placebo, UAS7 ≤6", "setting": "Week 11", "value": 0.418},
      {"measurement": "RRD (%) for rilzabrutinib vs. placebo, UAS7 = 0", "setting": "Week 11", "value": 0.3, "unit": "%"},
      {"measurement": "RRD (%) for rilzabrutinib vs. placebo, UAS7 ≤6", "setting": "Week 11", "value": "−9.4", "unit": "%"},
      {"measurement": "Responder n (%), UAS7 = 0", "setting": "Week 11", "value": "2 (5.3) n (%)"},
      {"measurement": "Responder n (%), UAS7 ≤6", "setting": "Week 11", "value": "3 (7.9) n (%)"},
      {"measurement": "Imputed non-responder n (%), UAS7 = 0", "setting": "Week 12", "value": "10 (26.3) n (%)"},
      {"measurement": "Imputed non-responder n (%), UAS7 ≤6", "setting": "Week 12", "value": "10 (26.3) n (%)"},
      {"measurement": "Non-responder n (%), UAS7 = 0", "setting": "Week 12", "value": "37 (97.4) n (%)"},
      {"measurement": "Non-responder n (%), UAS7 ≤6", "setting": "Week 12", "value": "36 (94.7) n (%)"},
      {"measurement": "OR for rilzabrutinib vs. placebo, UAS7 = 0", "setting": "Week 12", "value": 0.194},
      {"measurement": "OR for rilzabrutinib vs. placebo, UAS7 ≤6", "setting": "Week 12", "value": 0.378},
      {"measurement": "RRD (%) for rilzabrutinib vs. placebo, UAS7 = 0", "setting": "Week 12", "value": "−10.0", "unit": "%"},
      {"measurement": "RRD (%) for rilzabrutinib vs. placebo, UAS7 ≤6", "setting": "Week 12", "value": "−7.6", "unit": "%"},
      {"measurement": "Responder n (%), UAS7 = 0", "setting": "Week 12", "value": "1 (2.6) n (%)"}
    ]}
  ]
}
